In PubChem BioAssay (NCI):
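Values below derive from 48-hour exposures of cells grown in 96-well plates, with endpoints linearly interpolated between the two concentrations bracketing the appropriate inhibition level. The concentration for full growth arrest is given as TGI.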

Assays:
Test in all cases: NCI-60 cell line screen, 48 h
HT29 colon = system: HT29 colon
CAKI-1 renal = system: CAKI-1 renal
SNB-75 CNS = system: SNB-75 CNS
OVCAR-5 ovarian = system: OVCAR-5 ovarian
A498 renal = system: A498 renal
EKVX NSCLC = system: EKVX NSCLC
NCI-H522 lung = system: NCI-H522 lung
ACHN renal = system: ACHN renal
SF-295 CNS = system: SF-295 CNS
SK-OV-3 ovarian = system: SK-OV-3 ovarian
M14 melanoma = system: M14 melanoma
SR leukemia = system: SR leukemia
IGROV1 ovarian = system: IGROV1 ovarian
SN12C renal = system: SN12C renal
A549 NSCLC = system: A549 NSCLC
HOP-62 NSCLC = system: HOP-62 NSCLC
MCF7 breast = system: MCF7 breast
MDA-N = system: MDA-N

Structure (SMILES)	TGI (HT29 colon)	TGI (CAKI-1 renal)	TGI (SNB-75 CNS)	TGI (OVCAR-5 ovarian)	TGI (A498 renal)	TGI (EKVX NSCLC)	TGI (NCI-H522 lung)	TGI (ACHN renal)	TGI (SF-295 CNS)	TGI (SK-OV-3 ovarian)	TGI (M14 melanoma)	TGI (SR leukemia)	TGI (IGROV1 ovarian)	TGI (SN12C renal)	TGI (A549 NSCLC)	TGI (HOP-62 NSCLC)	TGI (MCF7 breast)	TGI (MDA-N)
CCCc1c(C(=O)OCC)[nH]c(-c2ccc(-c3[nH]c(C(=O)OCC)c(CCC)c3C(=O)OCC)o2)c1C(=O)OCC	> 100 µM	> 100 µM	> 100 µM	> 100 µM	> 100 µM	> 100 µM	> 100 µM	> 100 µM	> 100 µM	> 100 µM	> 100 µM	> 100 µM	> 100 µM	> 100 µM	> 100 µM	–	–	–
NCCCCN(CCCN)Cc1ccccc1	> 100 µM	> 100 µM	> 100 µM	> 100 µM	> 100 µM	> 100 µM	> 100 µM	> 100 µM	> 100 µM	> 100 µM	> 100 µM	–	> 100 µM	> 100 µM	> 100 µM	> 100 µM	> 100 µM	–
COC(=O)n1c(=O)n(-c2ccccc2)c(=O)n1C(=O)Nc1ccccc1	> 100 µM	> 100 µM	> 100 µM	> 100 µM	> 100 µM	> 100 µM	> 100 µM	> 100 µM	> 100 µM	> 100 µM	> 100 µM	> 100 µM	> 100 µM	–	> 100 µM	> 100 µM	–	–
O=C(Nc1nc2ccccc2n1Cc1ccc(Cl)cc1)NC12CC3CC(CC(C3)C1)C2	> 100 µM	> 100 µM	22.9 µM	> 100 µM	–	> 100 µM	42.7 µM	> 100 µM	27.3 µM	39.2 µM	> 100 µM	> 100 µM	> 100 µM	> 100 µM	66.5 µM	37.3 µM	–	–
c1ccc(N=c2sc3ccccc3sc2=Nc2ccccc2)cc1	3.86 µM	4.59 µM	11.5 µM	3.83 µM	5.65 µM	7.26 µM	2.95 µM	3.03 µM	12.5 µM	11.8 µM	–	> 100 µM	3.08 µM	3.15 µM	9.1 µM	15.3 µM	–	3.05 µM
CCOC(=O)C(=Cc1cc(OC)ccc1OC)C(=O)OCC	17 µM	28.1 µM	5.95 µM	–	28.5 µM	31.3 µM	14.4 µM	31.8 µM	26.5 µM	29.9 µM	24.2 µM	–	58.5 µM	26.3 µM	26.9 µM	23.6 µM	–	–
CC(C)Oc1ccc(CNC2=NCCO2)c2ccccc12	16.3 µM	–	34.7 µM	24.3 µM	23 µM	29.2 µM	–	27.7 µM	26.8 µM	30.9 µM	24.4 µM	26.3 µM	27.9 µM	32.2 µM	30.8 µM	30.8 µM	29.6 µM	–
COC(=O)c1c2c(c(-c3ccccc3)c3c1-c1nc(Cl)ccc1CC3)CCc1ccc(Cl)nc1-2	> 100 µM	> 100 µM	> 100 µM	> 100 µM	> 100 µM	> 100 µM	> 100 µM	> 100 µM	> 100 µM	> 100 µM	> 100 µM	> 100 µM	> 100 µM	> 100 µM	> 100 µM	> 100 µM	–	–
O=C(O)c1nc2ccccc2nc1Nc1ccc(F)cc1	> 100 µM	63.4 µM	81.8 µM	> 100 µM	> 100 µM	> 100 µM	82.4 µM	> 100 µM	58.5 µM	–	> 100 µM	91.1 µM	> 100 µM	–	> 100 µM	> 100 µM	74.8 µM	–
CC(C)C1SCc2nc3ccccc3n21 (stereo not drawn)	> 100 µM	> 100 µM	–	> 100 µM	83.3 µM	> 100 µM	> 100 µM	> 100 µM	> 100 µM	> 100 µM	> 100 µM	–	> 100 µM	> 100 µM	> 100 µM	> 100 µM	45.8 µM	> 100 µM
COc1ccc(/C=C2\SC(c3ccc(OC)cc3)N(NC(=O)Cc3ccccc3)C2=O)cc1 (stereo not drawn)	> 100 µM	> 100 µM	> 100 µM	> 100 µM	> 100 µM	–	> 100 µM	> 100 µM	> 100 µM	> 100 µM	> 100 µM	> 100 µM	> 100 µM	> 100 µM	> 100 µM	> 100 µM	–	–
CC1(Br)C(=O)NC(=O)N(C2CC(N=[N+]=[N-])C(CO)O2)C1N=[N+]=[N-] (stereo not drawn)	> 100 µM	> 100 µM	> 100 µM	> 100 µM	> 100 µM	> 100 µM	66.8 µM	> 100 µM	> 100 µM	> 100 µM	> 100 µM	–	> 100 µM	> 100 µM	> 100 µM	> 100 µM	–	–
